The target in assay [1] is T1, hKOR (Homo sapiens, UniProt P41145).
T1 construct: β-galactosidase enzyme fragment for EFC (ProLink tag of the PathHunter system; name and presence on the receptor from own knowledge); host or cells: U2OS-β-arrestin2-EFC-hKOR (PathHunter) cells
It counts as cell-based.

For assay [2], the target named is T1, hKOR. The assay can be described thus: cell-based. Particulars: for Emax: read-out: βarrestin2 Emax; for EC50: βarrestin2 pEC50.
A further assay addresses T2, human MOR (OPRM1) (Homo sapiens, UniProt P35372).
T2 construct: expressed in transfected cells
It counts as cell-based.

The target in the next assay is T3, hKOR (OPRK1) (Homo sapiens, UniProt P41145).
T3 construct: 3HA (triple haemagglutinin tag); expressed in transfected cells
The experiment in a line: cell-based. Particulars: for Emax: CHO, read-out: cAMP Emax.

Where [3] appears, read: mean EC50 of inhibition of forskolin-stimulated cAMP accumulation via KOR.

These results are taken from publication PMC10450872 (ACS Central Science, 2023).

Several values for one entry are separate records, joined by “and”; a condition that tells them apart may be missing. Identical values can stand only once.
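For Emax in this document: 100% = maximum response to 10 µM U69,593.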

T1 sequence (P41145 whole entry, the tested form may be a part): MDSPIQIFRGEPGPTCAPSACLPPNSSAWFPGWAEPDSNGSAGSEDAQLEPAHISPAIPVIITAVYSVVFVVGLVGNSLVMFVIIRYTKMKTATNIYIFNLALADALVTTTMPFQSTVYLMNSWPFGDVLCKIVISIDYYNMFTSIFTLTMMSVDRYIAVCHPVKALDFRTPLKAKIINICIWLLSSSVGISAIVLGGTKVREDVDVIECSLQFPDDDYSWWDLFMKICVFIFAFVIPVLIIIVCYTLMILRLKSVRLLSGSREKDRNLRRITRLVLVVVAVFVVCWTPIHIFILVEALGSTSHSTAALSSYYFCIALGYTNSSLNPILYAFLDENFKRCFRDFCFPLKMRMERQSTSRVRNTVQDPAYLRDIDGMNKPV
T3 sequence (P41145 whole entry): as the sequence (P41145 whole entry, the tested form may be a part) above
T2 sequence (P35372 whole entry): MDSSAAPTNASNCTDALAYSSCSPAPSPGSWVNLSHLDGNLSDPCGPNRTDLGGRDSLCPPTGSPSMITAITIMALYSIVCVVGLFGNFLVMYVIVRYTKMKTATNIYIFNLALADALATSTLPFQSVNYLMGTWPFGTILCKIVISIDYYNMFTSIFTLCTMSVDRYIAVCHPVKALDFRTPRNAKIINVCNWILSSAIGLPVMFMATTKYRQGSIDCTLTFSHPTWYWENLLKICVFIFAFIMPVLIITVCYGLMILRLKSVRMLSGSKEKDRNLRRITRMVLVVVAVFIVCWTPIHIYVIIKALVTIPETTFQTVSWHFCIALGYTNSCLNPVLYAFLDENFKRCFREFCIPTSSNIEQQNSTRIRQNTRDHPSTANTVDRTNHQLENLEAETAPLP

In the case of `COC(=O)C1CC(OC(C)=O)C(=O)C2C3CC(c4ccccc4)CC(=NO)C3CCC12C` (centres unmarked) [compound 37], the “Bias Factor” value on hKOR [1] is 8.60 and 7.4–9.8. Besides, the “ΔΔLogτ/KA (cAMP/βarr2)” value at hKOR [1] amounted to 0.116. For the same compound, the Emax came to 80% on hKOR [2] and 105% on hKOR (OPRK1). In addition, the EC50 was 42.7 nM at hKOR [2], 0.417 nM on hKOR (OPRK1) (cAMP pEC50) and 0.4 nM at hKOR (OPRK1) (setting [3]). For the same compound, the “selectivity for KOR over MOR” value on human MOR (OPRM1) is “high selectivity for KOR over MOR was also preserved”.
As to `COC(=O)[C@@H]1C[C@H](OC(C)=O)C(=O)[C@@H]2[C@H]3C[C@@H](c4ccccc4)CC(=O)N[C@@H]3CC[C@]21C` [compound 35], the “Bias Factor” value on hKOR [1] amounted to 5.48. Further, the “ΔΔLogτ/KA (cAMP/βarr2)” value at hKOR [1] worked out at 0.182. For the same compound, the maximal effect (Emax) amounted to 67% on hKOR [2] and 107% at hKOR (OPRK1). Further, the figures for the EC50 at hKOR [2] and at hKOR (OPRK1) (setting [3]) were 1820 nM and 46 nM, respectively.

The Emax is the maximal effect, on the per cent scale that the assay sets. As a reminder, the EC50 is the concentration that produces a half-maximal response. The low end stands for an effect from little substance, the high end for a need for much substance.
